Where a name gives a salt, the structure may show the parent alone. Read-outs that look alike come from different tables or passages of the source.
Legend:
[1] = test system: human diffuse large B-cell lymphoma cells (Karpas 422 cell); assay: Karpas 422 cell proliferation, Calcein AM staining; type: cell-based
[2] = test system: human diffuse large cell lymphoma B lymphocytes (Pfeiffer cell); assay: Pfeiffer cell proliferation, Calcein AM staining; type: cell-based
Excerpt: The diffuse large cell lymphoma B lymphocytes (Pfeiffer cells) were collected and counted when growing well.

[3] = Pharmacokinetic experiment in rats; type: in vivo, SD rats
Protocol: A certain amount of compound was weighted and dissolved in 0.1% Tween under vortex and ultrasound, and 0.5% carboxymethyl cellulose sodium (CMC-NA) solution was added to form a uniform solution.

[4] = Homo sapiens, KARPAS-422, read-out: Karpas422 Proliferation IC50 Nanomoles per Liter (nM)
[5] = Homo sapiens, Pfeiffer, read-out: Pfeiffer Proliferation IC50 Nanomoles per Liter (nM)
[6] = Homo sapiens, KARPAS-422, data of 14th day, read-out: Karpas422 Proliferation IC50 Nanomoles per Liter
[7] = Homo sapiens, Pfeiffer, data of 14th day, read-out: Pfeiffer Proliferation IC50 Nanomoles per Liter
[8] = male, SD, rat, in vivo, iv, 4 mg/kg
[9] = male, SD, rat, in vivo, po, 20 mg/kg
[10] = male, SD, rat, plasma, rats, Intravenous-Dose 4 mg/kg, read-out: Area Curve (AUC, ng/mL · h)
[11] = male, SD, rat, plasma; rats, Intravenous-Dose 4 mg/kg; read-out: Half life T1/2, h) (converted)
[12] = male, SD, rat, plasma, rats, Oral-Dose 20 mg/kg, read-out: Area Curve (AUC, ng/mL · h)
[13] = male, SD, rat, plasma, rats, Oral-Dose 20 mg/kg, read-out: Blood Drug level (Cmax, ng/mL)
[14] = male, SD, rat, plasma, rats, oral 20 mg/kg vs intravenous 4 mg/kg, read-out: Bioavailability (P %)

IC50 [1, 6]	IC50 [2, 7]	AUC [3, 10]	half-life [3, 11]	AUC [3, 12]	Cmax [3, 13]	bioavailability [3, 14]	Compound	also measured
3.03 nM	2.32 nM	–	–	–	–	–	CCN(c1cc(-c2ccc3c(c2)N(CC(F)(F)F)CC32CCOCC2)cc(C(=O)NCc2c(C)cc(C)[nH]c2=O)c1C)C1CCOCC1 [Example 20, N-((4,6-dimethyl-2-carbonyl-1,2-dihydropyridin-3-yl)methyl)-3-(ethyl(tetrahydro-2H-pyran-4-yl)amino)-2-methyl-5-(1-(2,2,2-trifluoroethyl)-2′,3′,5′,6′-tetrahydrospiro[dihydroindole-3,4′-pyran]-6-yl)benzamide]	–
3.67 nM	1.87 nM	–	–	–	–	–	CCN1CC2(CCOCC2)c2ccc(-c3cc(N(CC)C4CCOCC4)c(C)c(C(=O)NCc4c(C)cc(C)[nH]c4=O)c3Cl)cc21 [Example 54, 2-chloro-N-((4,6-dimethyl-2-carbonyl-1,2-dihydropyridin-3-yl)methyl)-5-(ethyl(tetrahydro-2H-pyran-4-yl)amino)-3-(1-ethyl-2′,3′,5′,6′-tetrahydrospiro[dihydroindole-3,4′-pyran]-6-yl)-6-methylbenzamide]	–
2.53 nM	1.85 nM	–	–	–	–	–	CCN(c1cc(-c2ccc3c(c2)N(CCC(F)(F)F)CC32CCOCC2)cc(C(=O)NCc2c(C)cc(C)[nH]c2=O)c1C)C1CCOCC1 [Example 26, N-((4,6-dimethyl-2-oxo-1,2-dihydropyridin-3-yl)methyl)-3-(ethyl(tetrahydro-2H-pyran-4-yl)amino)-2-methyl-5-(1-(3,3,3-trifluoropropyl)-2′,3′,5′,6′-tetrahydrospiro[indoline-3,4′-pyran]-6-yl)benzamide]	–
1.94 nM	0.94 nM	975 ng·h/mL	1.87 h	1190 ng·h/mL	433 ng/mL	24.4%	CCN(c1cc(-c2ccc3c(c2)N(CC(F)(F)F)C(=O)C32CCOCC2)cc(C(=O)NCc2c(C)cc(C)[nH]c2=O)c1C)C1CCOCC1 [Example 13, N-((4,6-dimethyl-2-carbonyl-1,2-dihydropyridin-3-yl)methyl)-3-(ethyl(tetrahydro-2H-pyran-4-yl)amino)-2-methyl-5-(2-carbonyl-1-(2,2,2-trifluoroethyl)-2′,3′,5′,6′-tetrahydrospiro[dihydroindole-3,4′-pyran]-6-yl)benzamide]	–
3.35 nM	1.97 nM	–	–	–	–	–	CCCN1CC2(CCOCC2)c2ccc(-c3cc(N(CC)C4CCOCC4)c(C)c(C(=O)NCc4c(C)cc(C)[nH]c4=O)c3F)cc21 [Example 59, N-((4,6-dimethyl-2-carbonyl-1,2-dihydropyridin-3-yl)methyl)-3-(ethyl(tetrahydro-2H-pyran-4-yl)amino)-6-fluoro-2-methyl-5-(1-propyl-2′,3′,5′,6′-tetrahydrospiro[dihydroindole-3,4′-pyran]-6-yl)benzamide]	–
–	0.87 nM	–	–	–	–	–	CCN(c1cc(-c2ccc3c(c2)N(C(=O)C(F)(F)F)CC32CCOCC2)cc(C(=O)NCc2c(C)cc(C)[nH]c2=O)c1C)C1CCOCC1 [Example 75, 5-(1-trifluoroacetyl-2′,3′,5′,6′-tetrahydrospiro[dihydroindole-3,4′-pyran]-6-yl)-N-((4,6-dimethyl-2-carbonyl-1,2-dihydropyridin-3-yl)methyl)-3-(ethyl(tetrahydro-2H-pyran-4-yl)amino)-2-methylbenzamide]	–
1.73 nM	0.68 nM	966 ng·h/mL	1.69 h	1290 ng·h/mL	530 ng/mL	26.8%	CCN(c1cc(-c2ccc3c(c2)N(CCC(F)(F)F)C(=O)C32CCOCC2)cc(C(=O)NCc2c(C)cc(C)[nH]c2=O)c1C)C1CCOCC1 [Example 14, N-((4,6-dimethyl-2-carbonyl-1,2-dihydropyridin-3-yl)methyl)-3-(ethyl(tetrahydro-2H-pyran-4-yl)amino)-2-methyl-5-(2-carbonyl-1-(3,3,3-trifluoropropyl)-2′,3′,5′,6′-tetrahydrospiro[dihydroindole-3,4′-pyran]-6-yl)benzamide]	–
3.09 nM	2.49 nM	–	–	–	–	–	CCN(c1cc(-c2ccc3c(c2)N(C)CC32CCOCC2)cc(C(=O)NCc2c(OC)cc(C)[nH]c2=O)c1C)C1CCN(CC(F)(F)F)CC1 [Example 40, 3-(ethyl(1-(2,2,2-trifluoroethyl)piperidin-4-yl)amino)-N-((4-methoxy-6-methyl-2-carbonyl-1,2-dihydropyridin-3-yl)methyl)-2-methyl-5-(1-methyl-2′,3′,5′,6′-tetrahydrospiro[dihydroindole-3,4′-pyran]-6-yl)benzamide]	–

The remaining lines, values behind:

Compound	IC50 [1, 6]	IC50 [2, 7]	AUC [3, 10]	half-life [3, 11]	AUC [3, 12]	Cmax [3, 13]	bioavailability [3, 14]	also measured
CCN1C(=O)C2(CCOCC2)c2ccc(-c3cc(N(CC)C4CCOCC4)c(C)c(C(=O)NCc4c(C)cc(C)[nH]c4=O)c3Cl)cc21 [Example 48, 2-chloro-N-((4,6-dimethyl-2-oxo-1,2-dihydropyridin-3-yl)methyl)-5-(ethyl(tetrahydro-2H-pyran-4-yl)amino)-3-(1-ethyl-2-oxo-2′,3′,5′,6′-tetrahydrospiro[dihydroindole-3,4′-pyran]-6-yl)-6-methylbenzamide]	–	–	–	–	–	–	–	IC50 [1, 4]: 1.99 nM; IC50 [2, 5]: 1.42 nM
CCN1CCC2(CC1)CN(C)c1cc(-c3cc(C(=O)NCc4c(C)cc(C)[nH]c4=O)c(C)c(N(CC)C4CCOCC4)c3)ccc12 [Example 30, N-((4,6-dimethyl-2-oxo-1,2-dihydropyridin-3-yl)methyl)-3-(ethyl(tetrahydro-2H-pyran-4-yl)amino)-5-(1′-ethyl-1-methylspiro[dihydroindole-3,4′-piperidine]-6-yl)-2-methylbenzamide]	1.2 nM	[…]	–	–	–	–	–	AUC [3, 8]: 879 ng·h/mL; half-life [3, 8]: 1.24 h; AUC [3, 9]: 1260 ng·h/mL; Cmax [3, 9]: 443 ng/mL; bioavailability [3, 9]: 28.6%
CCN(c1cc(-c2ccc3c(c2)N(C)CC32CCN(C(=O)OC)CC2)cc(C(=O)NCc2c(C)cc(C)[nH]c2=O)c1C)C1CCOCC1 [Example 33, Methyl 6-(3-(((4,6-dimethyl-2-carbonyl-1,2-dihydropyridin-3-yl)methyl)carbamoyl)-5-(ethyl(tetrahydro-2H-pyran-4-yl)amino)-4-methylphenyl)-1-methylspiro[dihydroindole-3,4′-piperidine]-1′-carboxylate]	4.92 nM	3.1 nM	–	–	–	–	–	–
N-((4,6-dimethyl-2-carbonyl-1,2-dihydropyridin-3-yl)methyl)-3-(ethyl(tetrahydro-2H-pyran-4-yl)amino)-2-methyl-5-(1-neopentyl-2′,3′,5′,6′-tetrahydrospiro[dihydroindole-3,4′-pyran]-6-yl)benzamide [Example 29]	–	–	–	–	–	–	–	IC50 ([1]; read-out: Karpas422 Proliferation IC50 Nanomoles per Liter): 3.01 nM; IC50 ([2]; read-out: Pfeiffer Proliferation IC50 Nanomoles per Liter): 2.13 nM
CCN(c1cc(-c2ccc3c(c2)C2(CC3)CC(C)N(CC)C(C)C2)cc(C(=O)NCc2c(OC)cc(C)[nH]c2=O)c1C)C1CCOCC1 (centres unmarked) [Example 50, 3-(ethyl(tetrahydro-2H-pyran-4-yl)amino)-5-(1′-ethyl-2′,6′-dimethyl-2,3-dihydrospiro[indene-1,4′-piperidine]-6-yl)-N-((4-methoxy-6-methyl-2-oxo-1,2-dihydropyridin-3-yl)methyl)-2-methylbenzamide formate]	–	–	954 ng·h/mL	1.34 h	1350 ng·h/mL	448 ng/mL	28.2%	IC50 [1, 4]: 1.08 nM
CCN(c1cc(-c2ccc3c(c2)N(C)C(=O)C32CCN(C(=O)OC)CC2)cc(C(=O)NCc2c(C)cc(C)[nH]c2=O)c1C)C1CCOCC1 [Example 32, Methyl 6-(3-(((4,6-dimethyl-2-carbonyl-1,2-dihydropyridin-3-yl)methyl)carbamoyl)-5-(ethyl(tetrahydro-2H-pyran-4-yl)amino)-4-methylphenyl)-1-methyl-2-carbonylspiro[dihydroindole-3,4′-piperidine]-1′-carboxylate]	1.73 nM	1.21 nM	943 ng·h/mL	1.64 h	1360 ng·h/mL	431 ng/mL	28.8%	–
CCN(c1cc(-c2ccc3c(c2)N(CC(F)(F)C(F)(F)F)C(=O)C32CCOCC2)cc(C(=O)NCc2c(C)cc(C)[nH]c2=O)c1C)C1CCOCC1 [Example 39, N-((4,6-dimethyl-2-oxo-1,2-dihydropyridin-3-yl)methyl)-3-(ethyl(tetrahydro-2H-pyran-4-yl)amino)-2-methyl-5-(2-oxo-1-(2,2,3,3,3-pentafluoropropyl)-2′,3′,5′,6′-tetrahydrospiro[dihydroindole-3,4′-pyran]-6-yl)benzamide]	–	–	897 ng·h/mL	1.62 h	1090 ng·h/mL	478 ng/mL	24.4%	IC50 [1, 4]: 0.82 nM; IC50 [2, 5]: 0.3 nM
CCN(c1cc(-c2ccc3c(c2)N(C(C)C)C(=O)C32CCOCC2)cc(C(=O)NCc2c(OC)cc(C)[nH]c2=O)c1C)C1CCOC(C)(C)C1 (centres unmarked) [Example 64, 3-((2,2-dimethyltetrahydro-2H-pyran-4-yl)(ethyl)amino)-5-(1-isopropyl-2-carbonyl-2′,3′,5′,6′-tetrahydrospiro[dihydroindole-3,4′-pyran]-6-yl)-N-((4-methoxy-6-methyl-2-carbonyl-1,2-dihydropyridin-3-yl)methyl)-2-methylbenzamide]	–	–	–	–	–	–	–	IC50 [1, 4]: 0.81 nM

From US12473298B2, “Amide compounds, preparation method therefor, and use thereof in the medical field” (Shanghai Synergy Pharmaceutical Sciences Co., Ltd., priority 2019, dated 2025)
